For one assay, the system named is PI3K and MAPK pathways. Put plainly: KAYAK profiling of cancer cell lines with or without gefitinib: PI3K and MAPK activity. The assay is classed as cell-based, human. The method, then: MCF7 and MBA-MB231 cells were maintained in DMEM supplemented with 10% FBS. Sum159 cells were maintained in Ham's F12 media supplemented with 5% FBS, 5μg/ml hydrocortisone. MCF10A, MCF10A, ErbB2, MCF10A/IGFR, and MCF10A/H-Ras^G12V cells were generously provided by J. Brugge (Debnath et al. 2002 Cell 111: 29-40; Irie et al. 2005 J Cell Biol 171: 1023-1034; Reginato et al. 2003 Nat Cell Biol 5: 733-740) and were maintained in 50/50 DMEM/F12 media supplemented with 5% horse serum, 20 ng/ml EGF, 100 ng/ml cholera toxin, 10 μg/ml insulin, and 500 ng/ml hydrocortisone. Breast cancer cells were treated also with 1 μM of gefitinib (LC laboratories) for 24 h before lysis and KAYAK analysis. The mutation data was obtained from Wellcome Trust Sanger Institute Cancer Genome Project Web site (Hollestele et al. 2007 Mol Cancer Res 5:195-201).
(§1) Peptides were synthesized, purified and quantified as described in Yu et al. 2009 Proc Natl Acad Sci USA 106: 11606-11611, hereby incorporated by reference herein in its entirety. Each substrate peptide (250 pmol) was mixed to a final concentration of 5 μM in the 50 μL reaction mixture. Alternatively, reactions were performed using 6 μg cell lysate aliquotes mixed to a final volume of 20 μl. Cell lysate or other kinase source was added to the substrate mixture in 25 mM Tris-Cl, pH 7.5, containing 5 mM ATP, 7.5 mM MgCl2, 0.2 mM EGTA, 7.5 mM β-glycerophosphate, 0.1 mM Na3VO4, and 0.1 mM DTT. The reaction was incubated at 25° C. for 60 min and then terminated by the addition of 100 μl of 1% trifluoroacetic acid (TFA) containing a known amount of an internal standard (typically 20 pmol). Alternatively, the reaction was incubated at 20° C. for 45 min before termination with TFA.
In tumors, activating mutations are often found in core signaling pathways (McLendon et al. 2008 Nature 455: 1061-1068). […]. The cell lines were chosen to represent the highly heterogeneous nature of breast cancer.

For the next assay, the system named is HeLa cell lysates. Briefly: KAYAK in vitro kinase assay, lysates of asynchronous, G1/S- or G2/M-arrested HeLa cells. The assay is classed as biochemical, human. The note with it: for G2/M: changed phosphorylation: G2/M phase compared to asynchronously growing HeLa cells; for G1/S: changed phosphorylation: G1/S phase compared to asynchronously growing HeLa cells. The method, then:
For cell cycle examples, HeLa cells were synchronized by double thymidine block for G1/S-arrest and by 0.2 μg/ml nocodazole for G2/M-arrest as described (Dephoure et al. 2008 Proc Natl Acad Sci USA 105: 10762-10767). Synchronization was confirmed by flow cytometry.
(§2) For cell lysis, the media were removed, and cells were washed with ice-cold phosphate-buffered saline (PBS) and lysed with ice-cold lysis buffer (10 mM K2HPO4 pH 7.5, 1 mM EDTA, 10 mM MgCl2, 50 mM β-glycerophosphate, 5 mM EGTA, 0.5% Nonidet P-40, 0.1% Brij 35, 0.1% deoxycholic acid, 1mM sodium orthovanadate, 1mM phenylmethyl-sulfonyl fluoride, 5 μg/ml leupeptin and 5 μg/ml pepstatin A). Lysates were centrifuged at 10,000 rpm for 10 min to remove cell debris, and clear supernatant was used for immunoblotting and in vitro kinase assays. Protein concentration was determined by Bradford assay (Biorad, Hercules, Calif.).
as §1
(§3) Forty-five individual in vitro kinase reaction mixtures were combined and desalted by using Sep-Pak C18 cartridge (Waters, Milford, Mass.). Phosphopeptides were enriched by immobilized metal ion chromatography (IMAC) with 20 μl of beads (Phos-Select iron affinity gel; Sigma, St. Louis, Mo.) and subsequently desalted by using Empore C18 solid phase extraction disks (3M, St. Paul, Minn.) as described previously.
(§4) Quantitation of the target peptide-internal standard ratios was performed by first constructing the extracted ion chromatogram for the most abundant charge state for each peptide using a ±10 ppm window. Chromatograms were integrated using Qual/Quan browser (Xcalibur 2.0.5, Thermo Fisher, San Jose, Calif.). Since the phosphorylated peptides generated from the in vitro kinase reactions were chemically identical to the internal standards, they were assumed to have the same ionization efficiency. Therefore, the amount of each phosphorylated peptide was calculated by direct ratio to the internal standard level.
(§5) To test substrate suitability in a multiplexed assay, the phosphorylation activities were measured using […] of each substrate peptide, 6 μg lysate, and 5 mM ATP in a plate format. Reactions proceeded for 60 minutes followed by acidification and the addition of isotope-labeled reference peptides. After pooling 45 samples, phosphopeptide enrichment was followed by liquid-chromatography (LC) separation and on-line peptide detection by high-resolution mass spectrometry.
In order to examine target peptides with cell-cycle-dependent phosphorylation, kinase activities in asynchronously growing HeLa cells were profiled and the profiles were compared with those of cells synchronized in G1/S and G2/M phase using a double-thymidine block and nocodazole arrest, respectively (FIG. 3B).

In another assay the test system is HEK293 cell lysates. Put plainly: KAYAK in vitro kinase assay, individual reactions, lysates of starved, insulin- or EGF-stimulated HEK293 cells. The assay is classed as biochemical, human. Conditions: for E: changed phosphorylation in EGF stimulated condition: EGF-stimulated compared to starved HEK293 cells. The method, then: For stimulation of HEK293 cells or HeLa lines, cells were treated with insulin (100 nM; 10-30 min) EGF (50 ng/ml; 10 min) or phorbol 12-myristate 13-acetate (PMA; 50 or 100 ng/ml; 10 -30 min) at 37° C. for the indicated times after overnight serum-starvation.
as §2, §1, §3, §4, §5
The ability of the peptides to report specific changes in kinase activation after pathway stimulation was examined herein. Lysates from HEK293 cells were collected after insulin or EGF treatment and were compared to their activities in the serum-starved state using the KAYAK approach. Western blot analysis of lysates from cells in which the PI3K and MAPK pathways were activated, as indicated by elevated phospho-Akt and phospho-ERK1/2 levels, respectively, is shown in FIG. 1D. […]

In another assay the target is T1, recombinant RSK1 (Homo sapiens, UniProt Q15418).
T1 construct: 90 kDa ribosomal S6 kinases 1 (RSK1, 1-735); purchased Cell Signaling Technology (Danvers, Mass.)
T1 sequence (Q15418 whole entry): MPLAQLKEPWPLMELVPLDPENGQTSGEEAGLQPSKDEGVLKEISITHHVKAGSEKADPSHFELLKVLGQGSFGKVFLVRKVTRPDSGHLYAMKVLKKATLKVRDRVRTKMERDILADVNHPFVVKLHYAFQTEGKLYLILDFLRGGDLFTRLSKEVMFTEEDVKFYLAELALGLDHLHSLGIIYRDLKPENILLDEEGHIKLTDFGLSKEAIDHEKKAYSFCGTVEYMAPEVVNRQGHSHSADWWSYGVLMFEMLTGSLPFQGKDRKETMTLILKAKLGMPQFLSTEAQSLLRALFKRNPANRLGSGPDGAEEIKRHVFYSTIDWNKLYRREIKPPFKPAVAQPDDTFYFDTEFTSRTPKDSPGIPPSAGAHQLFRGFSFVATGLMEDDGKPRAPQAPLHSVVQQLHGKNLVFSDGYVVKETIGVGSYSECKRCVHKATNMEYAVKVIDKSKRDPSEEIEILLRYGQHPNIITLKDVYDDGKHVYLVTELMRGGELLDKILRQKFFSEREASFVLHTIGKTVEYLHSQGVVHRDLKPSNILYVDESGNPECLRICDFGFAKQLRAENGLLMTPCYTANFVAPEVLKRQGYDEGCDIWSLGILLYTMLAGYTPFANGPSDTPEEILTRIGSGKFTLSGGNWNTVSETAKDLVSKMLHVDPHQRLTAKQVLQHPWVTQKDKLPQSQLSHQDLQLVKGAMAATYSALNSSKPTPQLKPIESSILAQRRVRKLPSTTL
Put plainly: In vitro peptide phosphorylation by purified RSK. The assay is classed as biochemical.
Source text: Reaction mixture was supplemented with 0.1% BSA. Other conditions were the same as in FIG. 10A.
Purified human active kinases of Akt1 (full length), extracellular signal-regulated kinase 1 (ERK1, 1-379), mitogen-activated protein kinase kinase 1 (MEK1, 1-393), 90 kDa ribosomal S6 kinases 1 (RSK1, 1-735), cAMP-dependent protein kinase (PKA) catalytic subunit-α (PKA Cα, 1-351), protein kinase Cα (PKCα, full length), epidermal growth factor (EGF) receptor (EGFR, 672-1210), platelet-derived growth factor (PDGF) receptor α (PDGFRα, 550-1090), vascular endothelial growth factor (VEGF) receptor 1 (VEGFR1 784-1338), Src (full length), casein kinase 2 (CK2, full length), Aurora A (1-403), AMP-activated protein kinase α1β1γ1 (AMPK α1β1γ1, full length), glycogen synthase kinase-3α (GSK-3α, 1-483) and MAP/microtubule affinity-regulating kinase 1 (MARK 1, full length) were obtained from Cell Signaling Technology (Danvers, Mass.). Cdc2/cyclin B1 (full length) and insulin-like growth factor (IGF)-I receptor (IGFIR, 959-1367) were obtained from Upstate (Temecula, Calif.).
as §1, with “Each substrate peptide (250 pmol) was mixed to a final concentration of 5 μM in the 50 μL reaction mixture.” left out
It was observed that basal phosphorylation of these peptides was not affected by knockdown and likely was the result of remaining RSK isoforms or other basophilic kinases (FIG. 5C).

Consider `COc1cc2ncnc(Nc3ccc(F)c(Cl)c3)c2cc1OCCCN1CCOCC1` [gefitinib], for which the “activation of MAPK after treatment” value with PI3K and MAPK pathways (HeLa cells, 1 μM) is “not to be affected”. Further, in the assay on PI3K and MAPK pathways (MCF7, 1 μM, 24 h), the “activity in PI3K and MAPK pathway after treatment” value is “decreased activity”. In addition, the “MAPK activity after treatment” value is “gefitinib-resistance” in the assay with PI3K and MAPK pathways (MCF10A cells overexpressing RasV12, 1 μM, 24 h); “completely refractory” in the assay with PI3K and MAPK pathways (MDA-MB231 cells, 1 μM, 24 h); “some sensitivity” in the assay on PI3K and MAPK pathways (Sum159 cells, 1 μM, 24 h). Further, the “PI3K and MAPK activity after treatment” value with PI3K and MAPK pathways (MCF10A/ErbB2, 1 μM, 24 h) is “strongly inhibited”; in the assay on PI3K and MAPK pathways (MCF10A/IGFR, 1 μM, 24 h), “strongly inhibited”; with PI3K and MAPK pathways (normal MCF10A cells, 1 μM, 24 h), “strongly inhibited”.
Take “FKNIVTPRTPPFR (The sequence was designed and synthesized) [D10]”: in the assay with HeLa cell lysates, the “G2/M: changed phosphorylation” value is “++ (A change of more than +4 and −4 fold is indicated by “++” and “−−”, respectively.)”.
Regarding “IPINGSPRTPPFR (The sequence was designed and synthesized) [B4]”, the “E: changed phosphorylation in EGF stimulated condition” value (“E: changed phosphorylation” for short) in the assay on HEK293 cell lysates is “+ (A change of more +2 fold and −2 fold is indicated by “+” and “−”, respectively.)”. Further, in the assay on HeLa cell lysates, the “G2/M: changed phosphorylation” value was “++ (A change of more than +4 and −4 fold is indicated by “++” and “−−”, respectively.)”.
With “IPTGTTPQRKPFR (The sequence was designed and synthesized) [C2]”, the “increase in phosphorylation in G2/M” value in the assay on HeLa cell lysates (G2/M (nocodazole-arrested) HeLa lysate vs asynchronously growing cells) is given as 19 fold. The “G2/M: changed phosphorylation” value in the assay with HeLa cell lysates was “++ (A change of more than +4 and −4 fold is indicated by “++” and “−−”, respectively.)”.
As to “KKKRFSFKKSPFR (The sequence was designed and synthesized) [G10]”, the “conversion of the substrate” value with HEK293 cell lysates (serum-starved HEK293 lysate, 100 μM peptide, 6 μg lysate, 60 min, highest activity peptide) is recorded as 18%.
For the molecule “LKLSPSPSSRPFR (The sequence was designed and synthesized) [B11]”, in the assay on HeLa cell lysates, the “G1/S: changed phosphorylation” value was “+ (A change of more +2 fold and −2 fold is indicated by “+” and “−”, respectively.)”; the “G2/M: changed phosphorylation” value was “++ (A change of more than +4 and −4 fold is indicated by “++” and “−−”, respectively.)”.
With “NKRRGSVPILPFR (The sequence was designed and synthesized) [C11]”, the “E: changed phosphorylation” value in the assay on HEK293 cell lysates is “+ (A change of more +2 fold and −2 fold is indicated by “+” and “−”, respectively.)”. In the assay with recombinant RSK1, the “phosphorylation by recombinant RSK1 in vitro” value (from here on “phosphorylation … in vitro”) is “robustly phosphorylate”.
Take “NLLPLSPEEFPFR (The sequence was designed and synthesized) [D7]”: in the assay on HeLa cell lysates, the “G1/S: changed phosphorylation” value is “−− (A change of more than +4 and −4 fold is indicated by “++” and “−−”, respectively.)”; the “G2/M: changed phosphorylation” value was “−− (A change of more than +4 and −4 fold is indicated by “++” and “−−”, respectively.)”.
With “NQDPVSPSLVPFR (The sequence was designed and synthesized) [B5]”, in the assay on HeLa cell lysates, the “G1/S: changed phosphorylation” value was “−− (A change of more than +4 and −4 fold is indicated by “++” and “−−”, respectively.)”; the “G2/M: changed phosphorylation” value is “− (A change of more +2 fold and −2 fold is indicated by “+” and “−”, respectively.)”.
Take “PKRKVSSAEGPFR (The sequence was designed and synthesized) [B6]”: the “E: changed phosphorylation” value with HEK293 cell lysates was “+ (A change of more +2 fold and −2 fold is indicated by “+” and “−”, respectively.)”. Further, in the assay on HEK293 cell lysates (EGF-stimulated vs serum-starved HEK293 lysate), the “increase in phosphorylation after EGF” value is 3 fold. Moreover, the “G2/M: changed phosphorylation” value in the assay with HeLa cell lysates was “− (A change of more +2 fold and −2 fold is indicated by “+” and “−”, respectively.)”. For the same molecule, in the assay with recombinant RSK1, the “phosphorylation … in vitro” value is given as “robustly phosphorylate”.
Take “PSTNSSPVLKPFR (The sequence was designed and synthesized) [A12]”: the “G2/M: changed phosphorylation” value with HeLa cell lysates is “+ (A change of more +2 fold and −2 fold is indicated by “+” and “−”, respectively.)”.
As for “SKRRNSEFEIPFR (The sequence was designed and synthesized) [G5]”, the “E: changed phosphorylation” value in the assay with HEK293 cell lysates was “+ (A change of more +2 fold and −2 fold is indicated by “+” and “−”, respectively.)”. Moreover, the “phosphorylation … in vitro” value with recombinant RSK1 was “robustly phosphorylate”.
As for “VKRQSSTPSAPFR (The sequence was designed and synthesized) [B7]”, in the assay on HeLa cell lysates, the “G1/S: changed phosphorylation” value was “−− (A change of more than +4 and −4 fold is indicated by “++” and “−−”, respectively.)”; the “G2/M: changed phosphorylation” value was “−− (A change of more than +4 and −4 fold is indicated by “++” and “−−”, respectively.)”.

The values are drawn from US10407712B2, “Methods, compositions and kits for high throughput kinase activity screening using mass spectrometry and stable isotopes” (President and Fellows of Harvard College, priority 2008, dated 2019).
